Measured values: article PMC4634863, “A Putative Non-Canonical Ras-Like GTPase from P. falciparum: Chemical Properties and Characterization of the Protein” (PLoS ONE, 2015)

Target: T1, PfG (Plasmodium falciparum, UniProt O77338)
T1 construct: gene PF3D7_0313500
T1 sequence (O77338 1-911): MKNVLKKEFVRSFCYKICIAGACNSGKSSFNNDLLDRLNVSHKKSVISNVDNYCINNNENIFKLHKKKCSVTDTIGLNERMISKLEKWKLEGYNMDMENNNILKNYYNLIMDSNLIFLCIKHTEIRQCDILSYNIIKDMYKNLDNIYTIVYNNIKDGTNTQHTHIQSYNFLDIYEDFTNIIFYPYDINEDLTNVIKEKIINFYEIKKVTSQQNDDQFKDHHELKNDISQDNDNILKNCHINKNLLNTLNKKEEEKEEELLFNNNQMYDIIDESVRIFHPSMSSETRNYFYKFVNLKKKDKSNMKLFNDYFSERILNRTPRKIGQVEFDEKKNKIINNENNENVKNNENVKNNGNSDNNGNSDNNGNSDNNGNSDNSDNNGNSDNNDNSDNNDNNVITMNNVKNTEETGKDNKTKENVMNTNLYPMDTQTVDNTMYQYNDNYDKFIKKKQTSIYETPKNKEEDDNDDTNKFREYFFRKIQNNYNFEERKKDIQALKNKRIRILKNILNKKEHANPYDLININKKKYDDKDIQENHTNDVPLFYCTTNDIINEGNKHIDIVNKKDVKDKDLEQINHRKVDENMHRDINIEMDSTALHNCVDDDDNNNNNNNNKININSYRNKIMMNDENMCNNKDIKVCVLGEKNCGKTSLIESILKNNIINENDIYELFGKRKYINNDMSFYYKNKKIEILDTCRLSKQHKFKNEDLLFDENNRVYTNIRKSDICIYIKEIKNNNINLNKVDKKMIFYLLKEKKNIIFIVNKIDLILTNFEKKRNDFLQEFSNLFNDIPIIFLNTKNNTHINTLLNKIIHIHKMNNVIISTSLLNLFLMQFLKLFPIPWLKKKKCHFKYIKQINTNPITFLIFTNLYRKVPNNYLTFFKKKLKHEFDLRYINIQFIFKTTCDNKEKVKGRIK
Test: fluorescence emission on binding, […] s time courses
Details: labelled compound; reversible nucleotide binding, unit printed as nmol (nM probably meant)

Substance: BODIPY® FL GTPγS
- dissociation constant (Kd): 1.77 ± 0.36 nmol
